Results reported in patent US8501789B2, “Use of salicylaldehyde isonicotinoyl hydrazone (SIH) for protection against retinal disease” (The Trustees of the University of Pennsylvania, priority 2007, dated 2013).
Read-outs that look alike come from different tables or passages of the source.

Legend:
[1] = test system: ARPE-19 cells; assay type: cell-based; details: for 5 mM H2O2 cytotoxicity: LDH release and Live/Dead
Method: Red indicates dead cells as detected by ethidium bromide homodimer fluorescence. Green indicates live cells as detected by calcein fluorescence;
(§1) Human adult RPE cells (ARPE-19 cell line from ATCC) were cultured until confluent in 24-well Falcon plates in 1:1 DMEM High Glucose with L-Glutamine and Ham's F12 media (Invitrogen, Carlsbad, Calif.) supplemented with 10% FBS (Hyclone, Logan, Utah). For labile iron detection ARPE cells were stably transfected with a pcDNA3.1 plasmid with an IRE-GFP insert (gift of Drs. Sangwon Kim and Sol Snyder, Johns Hopkins) as a reporter for intracellular iron levels. These cells were named iron-reporting ARPE (iRPE) cells. Efficacy of labile iron chelation was tested by adding different concentrations of SIH to the iron-free MEM medium on iRPE cells and assessing decrease in GFP fluorescence as a measure of reduction in intracellular iron levels at the 24 h time point. Epifluorescence microscopy was performed with a Nikon TE-300 microscope (Nikon Inc., Japan) and SpotRT Slider camera (Diagnostic Instruments, Inc., Sterling Heights, Mich.) with ImagePro Plus software, version 4.1 (Media Cybernetics, Silver Spring, Md.).
(§2) To evaluate SIH's cytoprotective properties, SIH at different concentrations was applied to confluent ARPE-19 cells four hrs prior to the addition of H2O2, staurosporine or anti-Fas antibody. Hydrogen peroxide (30% H2O2 from Sigma, St. Louis, Mo.) at final concentration ranging from 1 to 5 mM, Staurosporine (1 mM solution from Sigma) at 100-500 nM final concentration or aFas antibody (Upstate-Millipore, Billerica, Mass.) at 1 μg/mL final concentration were mixed with the indicated concentrations of SIH immediately before applying to ARPE-19 cells. All reagents were dissolved in Minimal Essential Medium (MEM, Invitrogen) as indicated and were applied rapidly and uniformly following two washing steps in HBSS.
Cell death was assayed after 24 hrs using the LDH Release Assay Kit (Roche, Basel, Switzerland). Cytotoxicity was calculated using the ratio between maximum LDH release in 2% Triton X100-treated cells and minimum LDH release in cells incubated in MEM. Visualization of cell death was performed using the LIVE/DEAD Viability/Cytotoxicity kit (Invitrogen).

[2] = test system: ARPE-19 cells; test: Staurosporine-induced cell death, LDH release and LIVE/DEAD assay; assay type: cell-based, Human
Method: as §2, with “(A) Graph of LDH release following exposure of ARPE-19 cells to varying concentrations of staurosporine. […] (B) Graph of LDH release following exposure of ARPE-19 cells to 200 nM staurosporine plus different concentrations of SIH. […] (C) Fluorescence photomicrograph of cells labeled with the LIVE/DEAD assay following treatment with staurosporine and/or SIH as indicated; To” for “To”, “HBSS. Cell death was assayed after 24 hrs using the LDH Release Assay Kit (Roche, Basel, Switzerland). Cytotoxicity was calculated using the ratio between maximum LDH release in 2% Triton X100-treated cells and minimum LDH release in cells incubated in MEM. Visualization of cell death was performed using the LIVE/DEAD Viability/Cytotoxicity kit (Invitrogen).” for “HBSS.”

[3] = test system: ARPE-19 cells; test: Intracellular ROS generation, dihydrorhodamine 123 fluorescence; assay type: cell-based, Human
Method: Level of ROS generation is detected by dihydrorhodamine 123 (green fluorescence) in cells treated with staurosporine and/or 3 μM SIH as indicated. Mitotracker dye (red fluorescence) indicates location of mitochondria; and
Intracellular ROS generation was measured in cultured cells by using the fluorescent probe dihydrorhodamine 123 (DHR123). Mitochondria were localized with Mitotracker Red 580 (Molecular Probes, Eugene, Oreg.). After 30 min of staurosporine exposure with our without SIH, cells were incubated with staurosporine +/−SIH in the presence of 10 μM DHR123 and 2 μM Mitotracker Red 580 at 37° C. for 15 min. DHR fluoresces and localizes to mitochondria when oxidized by ROS to the positively charged rhodamine 123^33. Mitotracker dye passively diffuses across the plasma membrane and specifically accumulates in active mitochondria.
To test whether iron contributes to this ROS production, and whether a decrease in mitochondrial ROS might be a mechanism of SIH protection, ROS were detected with rhodamine 123 after 30 min of staurosporine treatment. In the presence of ROS, non-fluorescent dihydrorhodamine 123 is converted into highly fluorescent rhodamine 123.

[4] = test system: intracellular labile iron levels in ARPE-19 cells stably transfected with the IRE-GFP reporter (iRPE); test: Labile iron chelation in IRE-GFP iron-reporting ARPE (iRPE) cells, GFP fluorescence; assay type: cell-based, Human; details: for GFP fluorescence (labile iron level): iRPE cells, 24 h, iron-free MEM
Method: Fluorescence intensity indicates relative intracellular iron levels. […] Images are representative of results from 3 independent experiments and taken using identical exposure parameters;
as §1, with “Efficacy of labile iron chelation was tested by adding different concentrations of SIH to the iron-free MEM medium on iRPE cells and assessing decrease in GFP fluorescence as a measure of reduction in intracellular iron levels at the 24 h time point.” left out
To quantify the labile iron pool, an iron-reporting RPE cell line (iRPE) was first generated, wherein fluorescence green fluorescent protein reflects labile iron levels. This was accomplished by making a stable cell line with the plasmid IRE-GFP (gift of Sangwon Kim and Sol Snyder). The iron responsive element (IRE) sequence in the 5′ untranslated region of the mRNA is bound by iron regulatory proteins only when labile iron levels are low, leading to inhibition of GFP translation. The fluorescence of iRPE cells treated with different concentrations of SIH for 24 h was determined (FIG. 2).

[5] = test system: ARPE-19 cells that had accumulated A2E; test: A2E/blue light-induced cell death, MTT assay; assay type: cell-based
Method: Graphs show ARPE-19 cell viability measured by the MTT assay. Increased absorbance indicates increased viability. (A) Cells were incubated with the indicated concentrations of SIH-MEM for 4 h, irradiated with blue light for 20 min in DPBS-SIH, and incubated in MEM-SIH for 24 hr before performing MTT assay. (B) Cells were pre-treated with MEM-SIH for 4 h, irradiated with blue light for 20 min in DPBS and incubated in MEM for 24 h. (C) Cells were irradiated by blue light for 20 min in DPBS and SIH-MEM was applied immediately after irradiation and maintained for 24 hrs. (D) Cells were irradiated with blue light for 20 min in DPBS and SIH-MEM was applied 1 h after irradiation and maintained for 23 h before performing MTT assay. For all graphs, relative to no SIH, * p<0.05, ** p<0.01, *** p<0.001;
For blue light irradiation experiments ARPE-19 cells devoid of endogenous lipofuscin were grown in complete medium (DMEM with 10% fetal calf serum and supplements) as previously described. At confluence the cells were allowed to accumulate A2E from a 10 μM concentration delivered in the culture medium over a 2 week period.
ARPE-19 cells that had accumulated A2E were treated with SIH in MEM for 4 hrs unless otherwise indicated. The SIH/MEM was subsequently exchanged for DPBS, the cells were irradiated at 430 nm for 20 min and then returned to complete medium and incubated for 24 hrs. Variations on this paradigm included experiments in which exposure to SIH/MEM was continued during illumination at 430 nm and for 24 hr thereafter; and experiments in which cells were not pre-incubated with SIH but instead were treated with SIH/MEM beginning either immediately after irradiation and continuing for 24 hrs or beginning 1 hr after irradiation and continuing for 23 hrs. In all experiments controls included A2E-laden irradiated cells that were not treated with SIH, cells that received no treatment (A2E-free, non-irradiated, incubation with MEM in the absence of SIH) and cells treated only with SIH.
In blue light irradiation experiments cell death was assayed by the 3-(4,5-dimethylthiazol-2-yl)-2,5-diphenyltetrazolium bromide assay, a measure of the ability of healthy cells to cleave the yellow tetrazolium salt MTT to purple formazan crystals. Briefly, following the post-illumination incubation described above, 20 uL of MTT labeling reagent (Roche Diagnostics Corp, Indianapolis, Ind.) was added to 0.2 mL of culture medium in each well and after a 4 hr incubation, the labeling reagent was replaced with 200 uL of solubilization solution for an overnight incubation. After centrifugation at 13,000 rpm for 2 min, supernatants were measured spectrophotometrically. A decrease in the absorbance (570 nm) of reduced MTT was indicative of diminished cellular viability.

[6] = test system: ARPE-19 cells; test: Anti-Fas antibody (aFas)-induced cell death, LDH release assay; assay type: cell-based, Human; details: SIH beginning 4 hrs before treatment with aFas
Method: All reagents were dissolved in Minimal Essential Medium (MEM, Invitrogen) as indicated and were applied rapidly and uniformly following two washing steps in HBSS. Cell death was assayed after 24 hrs using the LDH Release Assay Kit (Roche, Basel, Switzerland). Cytotoxicity was calculated using the ratio between maximum LDH release in 2% Triton X100-treated cells and minimum LDH release in cells incubated in MEM.

[7] = test system: ARPE-19 cells; assay type: cell-based, Human
[8] = UV/VIS spectra of SIH, H2O2 and their mixture (chemical interaction); assay type: physicochemical

## OO [H2O2, hydrogen peroxide, reference compound]
[1]; 5 mM H2O2, 24 h, LDH release and Live/Dead assay
  cell death: 100%

## CN[C@@H]1C[C@H]2O[C@@](C)([C@@H]1OC)n1c3ccccc3c3c4c(c5c6ccccc6n2c5c31)C(=O)NC4 [staurosporine, reference compound]
[2]; 200 nM staurosporine
  cell death (LDH release): significant cell death
[2]; 500 nM staurosporine
  cell death (LDH release): significant cell death
[3]; 200 nM staurosporine for 30 min, then dihydrorhodamine 123 for 15 min
  fluorescence of rhodamine 123 (ROS): increased fluorescence
[3]; 500 nM staurosporine
  fluorescence of rhodamine 123 (ROS): greater increase in fluorescence

## O=C(NN=Cc1ccccc1O)c1ccncc1 [SIH, salicylaldehyde isonicotinoyl hydrazone]
[4]; 3 μM SIH
  GFP fluorescence (labile iron level): decreased significantly
[4]; 10 μM SIH
  GFP fluorescence (labile iron level): decreased significantly
[4]; 50 μM SIH
  GFP fluorescence (labile iron level): close to the level of untreated control
[4]; 100 μM SIH
  GFP fluorescence (labile iron level): close to the level of untreated control
[4]; 1 mM SIH
  GFP fluorescence (labile iron level): decreased slightly
[4]; iron-containing medium DMEM-F12 with 10% fetal calf serum
  iRPE fluorescence levels: decreased the fluorescence
[1]; 5 μM SIH before H2O2 and mixed with H2O2, 24 h
  5 mM H2O2 cytotoxicity: completely abolished
[1]; 10 μM SIH before H2O2 and mixed with H2O2, 24 h
  5 mM H2O2 cytotoxicity: completely abolished
[1]; SIH applied 1 h after H2O2 (data not shown)
  cytoprotection against H2O2: no protection
[1]; SIH applied together with H2O2 but without SIH pre-treatment
  cytoprotection against H2O2: Diminished cytoprotection
[1]; SIH pre-incubated with ferric ammonium citrate in a 2:1 molar ratio (data not shown)
  cytoprotection against H2O2: no protection
[5]; SIH applied 1 hr after light exposure
  protection of cell viability (MTT): partial protection
[5]; SIH before, during, or as late as 1 hr after blue light exposure
  cell viability (MTT): cell viability was increased
[5]; SIH present before, during, and after light exposure
  cell viability (MTT): greatest increase in cell viability
[5]; cells incubated with SIH but not exposed to A2E or blue light
  SIH-mediated toxicity: No SIH-mediated toxicity
[6]
  cell death caused by Fas activation (LDH release): reduced cell death
[2]; SIH 4 h before and through 24 h of 200 nM staurosporine
  cell viability (LDH release): increased in an SIH concentration-dependent manner
[2]; SIH 4 h before and through 24 h of 500 nm staurosporine (not shown)
  cell viability (LDH release): increased in an SIH concentration-dependent manner
[2]; staurosporine plus 5 μM SIH
  red (dead) cells, live/dead fluorescent imaging: very few or none
[2]; staurosporine plus 10 μM SIH
  red (dead) cells, live/dead fluorescent imaging: very few or none
[2]; staurosporine-induced cell death
  SIH concentration of greatest cytoprotective effect: 10 µM
[3]; 3 μM SIH
  staurosporine-induced rhodamine 123 fluorescence (ROS): diminished
[7]; H2O2-treated cells, 5 μM SIH, 24 h
  carbonyl levels in total protein extracts: did not affect
[7]; cells treated for 24 h with H202, 5 μM SIH
  carbonyl levels in mitochondria-enriched fractions: more pronounced decrease
[7]; cells treated for 24 h with staurosporine, 5 μM SIH
  carbonyl levels in mitochondria-enriched fractions: more pronounced decrease
[7]; staurosporine-treated cells, 5 μM SIH, 24 h
  carbonyls in total protein extracts: small decrease
[8]
  changes in spectroscopic properties of SIH-H2O2 mixture compared with SIH and H2O2 alone: did not detect any changes
